Measured values from the NIST ThermoML archive (doi:10.1016/j.jct.2010.04.013).

Assay: mn = molality of the nth substance listed, in mol/kg
Conditions: 101 kPa, Liquid; for mass density: Vibrating tube method; for speed of sound: Pulse-echo method

[O-][Cl+3]([O-])([O-])[O-].[O-][Cl+3]([O-])([O-])[O-].[Sr+2] [strontium perchlorate] + CO
Conditions	mass density, 283.15 K [kg/m3]	mass density, 288.15 K [kg/m3]	mass density, 293.15 K [kg/m3]	mass density, 298.15 K [kg/m3]	mass density, 303.15 K [kg/m3]	mass density, 308.15 K [kg/m3]	mass density, 313.15 K [kg/m3]	speed of sound, 298.15 K [m/s]
m1 = 0.06323	814.327	809.615	804.898	800.168	795.42	790.66	785.866	1108
m1 = 0.07864	817.708	812.989	808.269	803.533	798.779	794.012	789.214	1109.7
m1 = 0.09378	821.019	816.297	811.567	806.826	802.074	797.297	792.492	1111.1
m1 = 0.1093	824.484	819.755	815.021	810.274	805.504	800.727	795.92	1112.6
m1 = 0.1234	827.609	822.874	818.133	813.381	808.608	803.819	799.011	1114
m1 = 0.154	834.44	829.692	824.939	820.172	815.389	810.594	805.771	1116.9
m1 = 0.1834	841.064	836.304	831.54	826.763	821.965	817.158	812.326	1120
m1 = 0.2113	847.498	842.723	837.945	833.161	828.36	823.539	818.693	1122.7
m1 = 0.2388	853.778	848.993	844.206	839.406	834.589	829.75	824.9	1125.5
m1 = 0.266	860.252	855.456	850.654	845.848	841.026	836.183	831.317	1128.2
m1 = 0.2946	867.084	862.275	857.464	852.642	847.803	842.939	838.069	1131.4

O=S(=O)([O-])C(F)(F)F.[Na+] [sodium trifluoromethanesulfonate] + C[S+](C)[O-]
Conditions	mass density, 293.15 K [kg/m3]	mass density, 298.15 K [kg/m3]	mass density, 303.15 K [kg/m3]	mass density, 313.15 K [kg/m3]	mass density, 323.15 K [kg/m3]	mass density, 333.15 K [kg/m3]	speed of sound, 298.15 K [m/s]
m1 = 0.02641	1102.59	1097.57	1092.55	1082.51	1072.47	1062.44	–
m1 = 0.0331	1103.2	1098.17	1093.52	1083.11	1073.08	1063.05	–
m1 = 0.04651	1104.41	1099.38	1094.37	1084.33	1074.31	1064.27	1482.7
m1 = 0.06041	1105.66	1100.64	1095.62	1085.59	1075.56	1065.53	1482.2
m1 = 0.0788	1107.34	1102.31	1097.29	1087.27	1077.24	1067.21	1481.6
m1 = 0.09603	1108.91	1103.88	1098.86	1088.84	1078.81	1068.79	1481
m1 = 0.1218	1111.26	1106.23	1101.22	1091.19	1081.17	1071.16	1480.1
m1 = 0.1568	1114.49	1109.45	1104.45	1094.42	1084.4	1074.39	1479
m1 = 0.1917	1117.71	1112.68	1107.66	1097.64	1087.62	1077.62	1477.6
m1 = 0.2205	1120.39	1115.36	1110.33	1100.32	1090.31	1080.3	1476.5
m1 = 0.2625	1124.33	1119.3	1114.27	1104.24	1094.22	1084.21	1475
m1 = 0.2925	–	–	–	–	–	–	1473.9

CO [methanol] + O=S(=O)([O-])C(F)(F)F.O=S(=O)([O-])C(F)(F)F.[Be+2]
m2 = 0
Conditions	mass density [kg/m3]
283.15 K	800.552
288.15 K	795.874
293.15 K	791.179
298.15 K	786.469
303.15 K	781.742
308.15 K	776.993
313.15 K	772.216

CO [methanol] + [Ba+2].[O-][Cl+3]([O-])([O-])[O-].[O-][Cl+3]([O-])([O-])[O-]
m2 = 0
Conditions	mass density [kg/m3]
283.15 K	800.555
288.15 K	795.877
293.15 K	791.18
298.15 K	786.468
303.15 K	781.739
308.15 K	776.993
313.15 K	772.219

[Ca+2].[O-][Cl+3]([O-])([O-])[O-].[O-][Cl+3]([O-])([O-])[O-] [calcium diperchlorate] + C[S+](C)[O-]
Conditions	mass density, 293.15 K [kg/m3]	mass density, 298.15 K [kg/m3]	mass density, 303.15 K [kg/m3]	mass density, 313.15 K [kg/m3]	mass density, 323.15 K [kg/m3]	mass density, 333.15 K [kg/m3]	speed of sound, 298.15 K [m/s]
m1 = 0.01996	1103.64	1098.63	1093.62	1083.61	1073.6	1063.59	–
m1 = 0.02505	1104.52	1099.51	1094.5	1084.5	1074.49	1064.5	–
m1 = 0.03085	1105.52	1100.51	1095.51	1085.52	1075.52	1065.54	1486.8
m1 = 0.03807	1106.77	1101.77	1096.77	1086.78	1076.8	1066.82	1487.3
m1 = 0.0488	1108.62	1103.63	1098.64	1088.67	1078.7	1068.74	1488.2
m1 = 0.06089	1110.72	1105.73	1100.74	1090.8	1080.86	1070.91	1489.3
m1 = 0.07827	1113.74	1108.77	1103.81	1093.88	1083.96	1074.05	1490.8
m1 = 0.1006	1117.66	1112.7	1107.75	1097.85	1087.97	1078.08	1492.6
m1 = 0.1214	1121.33	1116.39	1111.45	1101.58	1091.73	1081.88	1494.5
m1 = 0.1417	1124.92	1119.99	1115.06	1105.22	1095.39	1085.57	1496.2
m1 = 0.1651	1129.07	1124.16	1119.25	1109.44	1099.65	1089.87	1498.2
m1 = 0.1858	1132.79	1127.88	1122.99	1113.2	1103.45	1093.69	1500.1

[Mg+2].[O-][Cl+3]([O-])([O-])[O-].[O-][Cl+3]([O-])([O-])[O-] [magnesium perchlorate] + CO
Conditions	mass density, 283.15 K [kg/m3]	mass density, 288.15 K [kg/m3]	mass density, 293.15 K [kg/m3]	mass density, 298.15 K [kg/m3]	mass density, 303.15 K [kg/m3]	mass density, 308.15 K [kg/m3]	mass density, 313.15 K [kg/m3]	speed of sound, 298.15 K [m/s]
m1 = 0.05219	809.719	805.077	800.41	795.738	791.047	786.336	781.598	1109.9
m1 = 0.06927	812.714	808.079	803.422	798.76	794.077	789.377	784.647	1112.6
m1 = 0.08495	815.487	810.862	806.214	801.554	796.877	792.189	787.47	1115.2
m1 = 0.1015	818.369	813.747	809.112	804.466	799.801	795.117	790.405	1117.5
m1 = 0.1173	821.156	816.545	811.914	807.277	802.62	797.944	793.24	1120
m1 = 0.1339	824.082	819.477	814.852	810.224	805.578	800.91	796.216	1122.5
m1 = 0.1663	829.827	825.238	820.63	816.008	811.382	806.732	802.054	1127.2
m1 = 0.1999	835.828	831.249	826.659	822.059	817.443	812.807	808.147	1132.5
m1 = 0.2312	841.439	836.878	832.301	827.71	823.106	818.493	813.847	1137.2
m1 = 0.2628	847.212	842.663	838.096	833.522	828.937	824.333	819.703	1142
m1 = 0.2917	852.468	847.932	843.38	838.819	834.243	829.645	825.025	1146.5
m1 = 0.3234	858.304	853.784	849.245	844.698	840.139	835.559	830.96	1151.8

O=S(=O)([O-])C(F)(F)F.O=S(=O)([O-])C(F)(F)F.[Be+2] [beryllium 1,1,1-trifluoromethanesulfonate] + CO
Conditions	mass density, 283.15 K [kg/m3]	mass density, 288.15 K [kg/m3]	mass density, 293.15 K [kg/m3]	mass density, 298.15 K [kg/m3]	mass density, 303.15 K [kg/m3]	mass density, 308.15 K [kg/m3]	mass density, 313.15 K [kg/m3]	speed of sound, 298.15 K [m/s]
m1 = 0.05456	809.901	805.251	800.58	795.899	791.207	786.489	781.742	1105.4
m1 = 0.06745	812.098	807.453	802.786	798.111	793.424	788.711	783.973	1106.2
m1 = 0.08472	815.041	810.402	805.745	801.074	796.384	791.686	786.956	1107.2
m1 = 0.1077	818.969	814.336	809.691	805.032	800.359	795.664	790.942	1108.5
m1 = 0.1249	821.918	817.294	812.65	807.996	803.329	798.644	793.931	1109.5
m1 = 0.1421	824.885	820.267	815.629	810.983	806.316	801.638	796.936	1110.3
m1 = 0.1594	827.866	823.252	818.621	813.979	809.325	804.652	799.953	1111.1
m1 = 0.177	830.948	826.34	821.715	817.077	812.425	807.764	803.073	1111.9
